According to US9610359B2, “Methods and compositions related to annexin 1-binding compounds” (Burnham Institute for Medical Research, priority 2009, dated 2017):

How the values were obtained:
[1] = system: Mouse melanoma B16F1 tumors; format: in vivo; settings: B16 melanoma, 0.13 μmoles iv
Protocol: (a) Mouse melanoma B16F1 tumors were grown subcutaneously in C57BL6 mice. On day 10, each mouse was injected intravenously with either 100 μl of 5% glucose or that containing 0.13 μmoles of each IF7, GA, or IF7-GA. Injections were administered every other day, for a total of three injections, until day 14. […] B, Histochemistry of tumors from the mice intravenously injected with the compounds described in A. Apoptotic tumor cells along blood vessels in transplanted tumors are detected by TUNEL assay. B16 melanoma (a), LLC lung carcinoma (b), PC3 prostate tumor (c) and MDA-MB-231 breast tumor (d) from mice treated with each compound.
Injections were administered every other day, for a total of 7 injections, until day 26, as shown by arrows.

[2] = system: Mouse Lewis lung carcinoma (LLC) tumors; experiment: subcutaneous Lewis lung carcinoma tumor model; format: in vivo; settings: 0.13 μmoles iv
Protocol: (§1) FIGS. 6A and 6B show the effect of IF7-GA on melanoma, lung carcinoma, prostate cancer, and breast cancer mouse models. A, Effect of IF7-GA on tumor size. […] Mice were euthanised on day 15 to measure tumor weight. […] Mice were euthanised on day 13 and tumors weighed. (c) Human prostate cancer PC3 tumors were grown orthotopically in the prostate of SCID mice. On day 7, each mouse was injected intravenously with the compounds as in A-a, and injections administered every 4 days, for a total of four injections, until day 22. Mice were euthanised on day 28 and tumors weighed. (d) Human breast cancer MDA-MB-231 tumors were grown orthotopically in fat pads of SCID mice. On day 7, each mouse was injected intravenously with the compounds as in A-a, and injections performed every 4 days, for a total of four injections, until day 22. […] B, Histochemistry of tumors from the mice intravenously injected with the compounds described in A. Apoptotic tumor cells along blood vessels in transplanted tumors are detected by TUNEL assay. […]
(§2) Mouse melanoma B16F1 cells (2×10^5 cells/100 μl serum-free DMEM) were injected subcutaneously into the dorsal flank of C57BL/6 female mice (8-10 weeks old). […] On day 15, mice were sacrificed and tumor weights determined. […] On day 13, mice were sacrificed and tumor weights determined. […] On day 28, mice were sacrificed and prostate tumor weights determined. […]

[3] = system: Human prostate cancer PC3 tumors; experiment: orthotopic PC3 prostate cancer model in SCID mice; format: in vivo; settings: 0.13 μmoles iv
Protocol: as §1, §2

[4] = system: Human breast cancer MDA-MB-231 tumors; experiment: orthotopic MDA-MB-231 breast cancer model in SCID mice; format: in vivo; settings: MDA-MB-231 breast tumor, 0.13 μmoles iv
Protocol: as §1, §2

normal lung = settings: through pre-mRNA splicing factors; cited from earlier work
[5] = system: annexin 1 (Anxa1) fragment; settings: cited from earlier work
[6] = system: carbohydrate-dependent cancer cell colonization to the lung; settings: synthetic peptide injected intravenously into mice; cited from earlier work

Row | Compound | apoptosis of perivascular tumor cells (TUNEL, histochemistry) [1] | apoptosis of perivascular tumor cells (TUNEL) [2] | apoptosis of perivascular tumor cells (TUNEL) [3] | apoptosis of perivascular tumor cells (TUNEL) [4] | targeting to normal lung (normal lung) | binding to annexin 1 fragment [5] | cancer cell colonization to the lung [6]
1 | CO[C@H]1/C=C\C=C(/C)C(=O)NC2=CC(=O)C(NCCCNC(=O)CCCN3C(=O)C=CC3=O)=C(C[C@@H](C)C[C@H](OC)[C@H](O)[C@@H](C)/C=C(\C)[C@@H]1OC(N)=O)C2=O [GA, 17-GMB-APA-GA, reference compound] | rarely show apoptosis | rarely show apoptosis | rarely show apoptosis | rarely show apoptosis | – | – | –
2 | IELLQAR [I-peptide, selectin ligand mimicry peptide] | – | – | – | – | also targets to normal lung | bound to an annexin 1 (Anxa1) fragment | inhibited carbohydrate-dependent cancer cell colonization to the lung
